Patent US11045475B2, “Application of methyl 4-[9-(6-aminopuryl)]-2(s)-hydroxybutyrate in preparation of medicament for treating psoriasis and vitiligo” (SHANGHAI INSTITUTE OF MATERIA MEDICA, CHINESE ACADEMY OF …, priority 2016, dated 2021)

Tests used:
[1] = biological target: S-adenosyl-L-homocysteine hydrolase (SAHH) (Homo sapiens, UniProt P23526); details: background statement; cited from earlier work
spleen swelling = experiment: Spleen weight / spleen index in imiquimod-induced psoriasis mice; format: in vivo, female balb/c mice; details: after 7 days of ointment treatment, FIG. 2A, 2B
Description: (§1) FIG. 2 illustrates the inhibition of spleen swelling and T lymphocyte activation in spleen induced by imiquimod with methyl 4-[9-(6-aminopuryl)]-2(s)-hydroxybutyrate in mice. Mice models are weighed (FIG. 2A) and euthanized on Day 7 of imiquimod-induced psoriasis modeling, and spleens of the mice were weighed to calculate spleen index (FIG. 2B); naive T cells (CD3^+CD4^+CD44^−CD62L^+) ratio (FIG. 2C, 2D), and active T cells (CD3^+CD4^+CD44^+CD62L^−) ratio (FIG. 2C, 2E) are detected. *P<0.05, ***P<0.001, n≥5. The groups in FIG. 2 are the normal control group, model control group and ointment treatment group. FIG. 2C is for CD3^+CD4^+ T cells, and FIGS. 2D and 2E show the ratio of CD3^+CD4^+ T cells in all spleen lymphocytes. […]
(§2) Treatment: dorsal skin of the mice of the normal control group and model control group was applied with ointment base of 62.5 mg from Example 1 every day, and the dorsal skin of the mice of calcipotriol control group was applied with Calcipotriol Ointment of 62.5 mg every day, and the dorsal skin of the mice of ointment treatment group was applied with methyl 4-[9-(6-aminopuryl)]-2(s)-hydroxybutyrate ointment of 62.5 mg. […] Based on PASI score system, the erythema (FIG. 1A), scales (FIG. 1B) and skin thickening (FIG. 1C) of the dorsal skin were scored (0-4). […]

cells = details: background statement; cited from earlier work
IL-17 = IL-17 ELISA of damaged skin extract of imiquimod-induced psoriasis mice; format: in vivo, female balb/c mice; details: after 7 days of ointment treatment, FIG. 3
Description: FIG. 3 illustrates the inhibition of IL-17 level in psoriatic lesions induced by imiquimod with methyl 4-[9-(6-aminopuryl)]-2(s)-hydroxybutyrate in mice. Skin of the lesions is taken on Day 7 of imiquimod-induced psoriasis modeling, and its IL-17 content is detected by ELISA. *P<0.05, n≥5. The groups in FIG. 3 are the normal control group, model control group and ointment treatment group.
Construction of animal models with psoriasis: normal control group, model control group, calcipotriol ointment control group, ointment treatment group, n=10/group. […]
as §2
The mice were weighed when the psoriasis was more serious after 7 days of treatment; the mice were sacrificed, and the spleens of each group were removed and weighed. […] Inflammatory factor (IL-17) of the extract was detected by ELISA (FIG. 3).

[2] = test system: experimental autoimmune encephalomyelitis (EAE); details: animal models, background statement; cited from earlier work
[3] = test system: systemic lupus erythematosus (SLE); details: animal models, background statement; cited from earlier work
[4] = test system: psoriasis induced by imiquimod in mice; experiment: Imiquimod-induced psoriasis in mice, ointment treatment, PASI scoring and skin lesion photographs; format: in vivo, female balb/c mice; details: 62.5 mg ointment (0.2 g per 10 g) on dorsal skin every day, observed over 15 days, FIG. 1
Description: Testing materials: the ointment base from Example 1; the methyl 4-[9-(6-aminopuryl)]-2(s)-hydroxybutyrate ointment from Example 2, and per 10 g of the ointment contains 0.2 g of methyl 4-[9-(6-aminopuryl)]-2(s)-hydroxybutyrate.
Modeling drug: Imiquimod Cream produced by SICHUAN MED-SHINE PHARMACEUTICAL CO., LTD.; SDA (State Drugs Administration) License No.: GUOYAOZHUNZI H20030128; Lot No.: 15060139.
Positive control drug: Calcipotriol Ointment produced by CHONGQING HUAPONT PHARM CO., LTD., SDA (State Drugs Administration) License No.: GUOYAOZHUNZI H20113541; Lot No.: 2015002.
Experimental animals: female balb/c mice with body weight of 18-22 g, provided by SHANGHAI SLAC LABORATORY ANIMAL CO., LTD. […]
as §2

[5] = test system: T lymphocyte activation in spleen; experiment: Flow cytometry of naive and active T cells in spleen lymphocytes of imiquimod-induced psoriasis mice; format: in vivo, female balb/c mice; details: after 7 days of ointment treatment, FIG. 2C-2E
Description: as §1, §2

S-adenosyl-L-homocysteine hydrolase (SAHH), sequence (P23526 whole entry, species assumed): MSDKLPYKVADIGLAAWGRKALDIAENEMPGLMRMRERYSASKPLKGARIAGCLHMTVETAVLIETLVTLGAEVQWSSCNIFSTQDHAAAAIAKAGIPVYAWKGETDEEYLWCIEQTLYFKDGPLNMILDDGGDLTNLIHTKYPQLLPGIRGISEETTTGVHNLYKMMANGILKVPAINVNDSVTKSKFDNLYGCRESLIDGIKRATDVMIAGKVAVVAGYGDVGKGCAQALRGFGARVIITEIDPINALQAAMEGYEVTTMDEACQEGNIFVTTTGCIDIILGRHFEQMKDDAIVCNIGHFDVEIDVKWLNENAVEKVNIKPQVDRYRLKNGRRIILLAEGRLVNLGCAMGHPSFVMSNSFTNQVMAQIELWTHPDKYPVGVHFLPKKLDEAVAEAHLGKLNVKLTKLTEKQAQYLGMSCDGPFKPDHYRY

COC(=O)C(O)CCn1cnc2c(N)ncnc21 (centres unmarked) [methyl 4-[9-(6-aminopuryl)]-2(s)-hydroxybutyrate]
type of SAHH inhibition [1]: type III inhibitor of SAHH
spleen swelling (spleen index) (spleen swelling): improved spleen swelling in mice with psoriasis induced by imiquimod significantly
cytotoxicity (cells): low cytotoxicity
level of IL-17 in the damaged skin (IL-17): inhibited the level of IL-17 in the damaged skin
therapeutic effect on EAE [2]: good therapeutic effect
therapeutic effect on SLE [3]: good therapeutic effect
PASI scores of erythema, scales, skin thickening and total score of skin lesion severity [4]: relieved psoriasis induced by imiquimod in mice effectively
T lymphocyte activation (ratio of naive and active T cells in spleen lymphocytes) [5]: inhibited T lymphocyte activation in mice with psoriasis induced by imiquimod
